# Source: ChEMBL document CHEMBL3507680, “University of Dundee, Gates Library screen for HepG2 cell viability”
# Assay: Human HepG2 cell viability assay in 384 well format
# Type: toxicity, cell-based
# Parameters: dose 125 nL, time 70.5 hour; cytotoxicity at 70.5 h: concentration not given beside the values
# Conditions: HepG2 cells, read-out: Inhibition
row,SMILES,cytotoxicity at 70.5 h
1,CCN(C)C(=O)CCN(C)Cc1cnc(C)s1,-0.298%
2,COc1ccc(C2CCCN2Cc2cnn(C)c2)cc1 (stereo not given),-9.31%
3,CC(SCC(=O)N(C)CC(=O)NC1CC1)c1ccccc1F (stereo not given),-5.51%
4,COCCN1CCCN(C(=O)c2oc(C)nc2C)CC1,-7.73%
5,CC(=O)NC(C(=O)N(C)Cc1nnc2n1CCC2)C(C)C (stereo not given),22.2%
6,Cc1cnn(CC(C)NCC(=O)NCCc2cccs2)c1 (stereo not given),10.8%
7,Brc1cccc(C2(CNCc3cc[nH]c3)CCOCC2)c1,17.6%
8,Cc1cc(C(C)NC(=O)c2ccc(O)nc2)c(C)o1 (stereo not given),2.4%
9,Cc1oc(-c2cccs2)nc1C(=O)N(C)C1(C#N)CCC1,-17.6%
10,CC(C(=O)N(C)Cc1nnc2n1CCC2)S(C)(=O)=O (stereo not given),-1.23%
11,CC(O)CN1CCC(CNCc2ccc(C#N)cc2)CC1 (stereo not given),0.277%
12,CC(O)CN1CCC(CN(C)Cc2ccc(C(N)=O)cc2)CC1 (stereo not given),-9.95%
13,CCC(C)CS(=O)(=O)NC(=O)C1CC1 (stereo not given),-5.06%
14,OCCn1nnnc1Cc1ccc(Br)cc1,-6.7%
15,CCc1cnc(N2CCN(Cc3ccno3)CC2)s1,-1.37%
16,Cc1ccc(CN(C)C)cc1NC(=O)C1CC=CC1,-3.31%
17,Cc1cc(C(C)NC(=O)c2c[nH]c(=O)c(Cl)c2)c(C)o1 (stereo not given),-1.21%
18,CC(O)CN1CCC(CN(C)Cc2cccc(C#N)c2)CC1 (stereo not given),-2.33%
19,CC(O)CN1CCC(CN(C)Cc2ccc(C#N)cc2F)CC1 (stereo not given),6.92%
20,CC(C)OCCCNC(=O)N(C)C(C)c1ccc(-n2cncn2)cc1 (stereo not given),-6.64%
21,CC(CNC(=O)NCc1ccsc1)CC1(C)OCCO1 (stereo not given),-8.79%
22,Cc1cccnc1CSCCCNS(C)(=O)=O,-5.33%
23,CC(O)CN1CCC(CN(C)Cc2ccc(C#N)cc2)CC1 (stereo not given),-11%

row,SMILES,cytotoxicity at 70.5 h
1,Clc1nc2ccccn2c1CNCC1CN(C2CC2)CCO1 (stereo not given),4.07%
2,N#Cc1ccc(CNc2cnn(CCN3CCOCC3)c2)cc1,42.1%
3,Cc1cc(C(=O)O)c2c(Br)cccc2n1,-13.5%
4,Cc1noc(C)c1CN(C)C(=O)CCn1c(=O)n(C)c2ccccc21,-12.2%
5,CN(C(=O)c1ccc(S(=O)(=O)NC(C)(C)C)cc1)C1(C#N)CCC1,-17.4%
6,Cc1cc2ccccc2n1CC(=O)Nc1ccnn1CC1CCOC1 (stereo not given),-14.7%
7,CCC(C)NS(=O)(=O)c1ccc(C(=O)N(C)C2(C#N)CCC2)cc1 (stereo not given),-23.6%
8,O=C(COc1ccc2c(c1)CCC2)N1CCCC1c1ccc[nH]1 (stereo not given),-23.1%
9,Cc1noc(C)c1CN(C)Cn1c(=O)n(C)c2ccccc21,-6.45%
10,NC(=O)C1CCN(C(=O)Cn2nc(-c3ccccc3)oc2=O)C1 (stereo not given),-5.69%
11,CCc1nc(CN2CCN(c3ncnc4cc(F)ccc34)CC2)no1,24.8%
12,CC(C)C1CN(C(=O)c2ccc(C(N)=O)cc2)CCS1 (stereo not given),-6%
13,O=C(NC1(c2cccc(F)c2)CCOCC1)c1cc[nH]n1,-4.33%
14,CC(C)C1CN(C(=O)c2nccnc2N)CCS1 (stereo not given),-4.8%
15,CC(C)(C)OC(=O)N1CCCc2ccc(NCc3ncc[nH]3)cc21,9.84%
16,O=C(NC1CCCC1)NC1CCC(C(=O)N2CCSCC2)CC1 (stereo not given),-9.08%
17,Cc1cccc(S(=O)(=O)NCC(C)N2CCN(C)CC2)c1Cl (stereo not given),-1.95%
18,O=C(C(CNCc1ccsc1)c1ccccc1)N1CCOCC1 (stereo not given),-2.8%
19,COCCc1noc(CNC2CCCN(c3cccnn3)C2)n1 (stereo not given),11%
20,Cc1n[nH]cc1CNc1ccc2c(c1)CN(C(=O)OC(C)(C)C)CC2,-6.16%
21,CN(Cc1ccc(N2CCCCC2)cc1)Cc1noc(C(C)(C)C)n1,-9.02%
22,CC(O)CN1CCN(Cc2csc(-c3ncccn3)n2)CC1 (stereo not given),5.33%
23,Cc1n[nH]c(C2CN(C(=O)CCc3ccco3)CCO2)n1 (stereo not given),9.82%

row,SMILES,cytotoxicity at 70.5 h
1,COc1cc(C(=O)N(Cc2ccc(F)cc2)C2CC2)cc2c1OCCO2,17.8%
2,Cc1ccsc1CN(C)C(=O)Cn1nc(-c2ccc(F)cc2)oc1=O,4.04%
3,CN(Cc1ccc(F)cc1)C(=O)Cn1nc(-c2ccc(F)cc2)oc1=O,26.3%
4,CN(Cc1ccccc1Br)C(=O)Cn1nc(-c2ccc(F)cc2)oc1=O,-8.06%
5,O=C(COc1cccc2c1CCC2=O)NCCSc1ccccc1,3.81%
6,COc1ccc(CS(=O)(=O)CC(=O)NCC2CC2)cc1F,-3.56%
7,O=C(Cc1c[nH]c2ccccc12)N1CCN(C(=O)c2ccoc2)CC1,1.6%
8,CC(CN1CCOCC1)NC(=O)NCc1ccc(Cl)s1 (stereo not given),-7.44%
9,CCOCCCC(=O)NCc1cn2cc(Br)ccc2n1,-3.96%
10,COc1ccc(-c2nnc(SCC(=O)NCC(C)C)[nH]2)c(OC)c1,-7.35%
11,CCc1cc(NCc2ccccc2CN2CCCC2)n2ncnc2n1,29.1%
12,CCc1cc(NCC(O)CN2CCCCC2)n2ncnc2n1 (stereo not given),1.39%
13,COC(=O)[C@H](C)NC(=O)c1cc(-c2cccc(Cl)c2)no1,2%
14,CS(=O)(=O)N1CCc2c(cccc2NC(=O)CC(F)(F)F)C1,-1.76%
15,Cc1c(C(=O)NCC(C)C)nnn1-c1cccc2c1CCN(C)C2,1.85%
16,CC(NC(=O)c1cc(-c2cccc(Cl)c2)no1)C(=O)N1CCCC1 (stereo not given),-10.6%
17,Cc1ccc(OCCC(=O)NC2CCc3nccn3C2)cc1 (stereo not given),0.164%
18,Cc1ccc(OCCC(=O)NC2CCc3nc(C)cn3C2)cc1 (stereo not given),2.29%
19,Cc1cc(NC(=O)C(c2cccc(F)c2)N2CCOCC2)ccn1 (stereo not given),13.3%
20,Cc1n[nH]c(C2CN(C(=O)c3cc(Cl)c[nH]3)CCO2)n1 (stereo not given),-3.9%
21,CC(=O)Nc1cccc(OCCNC(=O)N(C)Cc2ccco2)c1,0.512%
22,Cc1nc(C)n(CC2CCCN(Cc3nnc(-c4ccco4)o3)C2)n1 (stereo not given),-2.38%
23,NC(=O)CCN1CCC(C(=O)c2cc(F)ccc2F)CC1,15%

row,SMILES,cytotoxicity at 70.5 h
1,CC1CCN(CCNC(=O)c2ccccc2N2CCOCC2)CC1,-7.45%
2,O=C(NCCc1ccccn1)NC1CCN(c2ncccn2)CC1,-8%
3,COc1ccc(CN(C)C(=O)CCC(=O)c2cccs2)c(OC)c1OC,-3.38%
4,COC(=O)C(C)(C)NC(=O)C1CC(=O)N(C2CCCC2)C1 (stereo not given),-9.13%
5,COc1ccc(C(=O)Nc2cnn(CC(=O)NC3CCCC3)c2)c(O)c1,-1.19%
6,Cc1cc(C)nc(N2CCN(C(=O)c3cc(Cl)c[nH]3)CC2)n1,-9.1%
7,Cc1ccccc1C(=O)Nc1cnn(CC(=O)NC2CCCC2)c1,-3.04%
8,Cc1cc(N2CCN(C(=O)c3cc(Cl)c[nH]3)CC2)nc(N)n1,-6.18%
9,Cc1nn(C(C)C)c(C)c1NC(=O)c1ccncc1,-5.05%
10,CCN(CC)c1ccc(NS(=O)(=O)c2cncc(F)c2)cn1,-0.536%
11,CCCNC(=O)CNc1cc(C(=O)N2CCSCC2)ccc1C,-6%
12,CCSc1ccc(C(=O)Nc2c(C)nn(C(C)C)c2C)cn1,14.1%
13,Cc1ccc(C(=O)N2CCSCC2)cc1NC(=O)NCCO,-4.73%
14,COCCN(C)C(=O)c1ccc(OC)cc1O,-2.43%
15,CS(=O)(=O)c1ccc(OCCNCc2cccc(F)c2)cc1,-2.08%
16,NC(=O)C1CN(C(=O)Nc2cc(Cl)cc(Cl)c2)CCO1 (stereo not given),-3.67%
17,Cc1ccc(CNCCOc2ccc(S(C)(=O)=O)cc2)cc1,11%
18,N#CCSCCCN1CCCN(C(=O)c2ccccc2)CC1,-8.59%
19,CN1CC(C(=O)NC(C)(C)C)CC1=O (stereo not given),-9.06%
20,COC(=O)C(C)(C)NC(=O)C1CC(=O)N(C)C1 (stereo not given),-7.02%
21,O=C(CN1CCCCCCC1=O)NCc1ccccn1,-1.3%
22,Cc1nc(C)c(C(=O)N2CCC(Nc3cccnc3)CC2)s1,-8.38%
23,CN(Cc1nnc(C2CC2)n1C)C1CCN(CCc2cccs2)C1 (stereo not given),-6.98%

row,SMILES,cytotoxicity at 70.5 h
1,CN(CCN1CCOCC1)C(=O)CCc1cccc(Cl)c1,20.6%
2,CSc1ccc(C(CN)N2CCc3sccc3C2)cc1 (stereo not given),24.3%
3,CN(Cc1ccc(Cl)c(Cl)c1)C(=O)CNC(N)=O,0.00328%
4,Cc1cc(C(=O)N2CC[C@H]3C[C@H](c4ccncn4)O[C@@H]3C2)no1,12.7%
5,CCOCC1CN(Cc2cnn(C)c2)Cc2cnn(C)c21 (stereo not given),-9.88%
6,O=C(C1CCOCC1)N1CC[C@@H](N2CCOCC2)[C@@H]1Cc1ccccc1,5.57%
7,O=C(c1cscn1)N1CC[C@H]2C[C@@H](c3ccncn3)O[C@@H]2C1,7.77%
8,O=C(c1ccnnc1)N1CC[C@H]2C[C@H](c3ccncn3)O[C@@H]2C1,5.3%
9,CC(=O)N1CCCC2(CCN(C(=O)c3ccc(Cl)c(C(F)(F)F)c3)C2)C1 (stereo not given),-10.6%
10,COCc1cnc2n1CCN(C(=O)c1ocnc1C)C2C (stereo not given),10.1%
11,Cn1cc(CN2CCOCC3(CCN(C4CCOCC4)C3)C2)cn1 (stereo not given),6.49%
12,O=C(c1ccncc1)N1C[C@@H](OCc2cccnc2)[C@H]2OCCC[C@H]21,-10.2%
13,COCCCNC(=O)c1ccn(-c2ccc3ccccn23)n1,-12.6%
14,Cc1nc(CN2CCO[C@@H]3CNCC[C@@H]3C2)cs1,-5.71%
15,Fc1cccc(-c2c[nH]c(C3CCCN3)n2)c1 (stereo not given),0.492%
16,CCOCC1CN(Cc2cnn(C)c2)Cc2nn(CC3CC3)cc21 (stereo not given),-10.4%
17,Cn1cc(N2CC3(COCCN(Cc4ccccn4)C3)OCC2=O)cn1 (stereo not given),-11.1%
18,CCS(=O)(=O)N1C[C@@H](OCc2ccccn2)[C@@H]2OCCC[C@@H]21,-9.16%
19,Cc1ccc(C(=O)N2CCn3c(COCC4CC4)cnc3C2C)nc1 (stereo not given),-8.57%
20,Cc1ccc(CN2C[C@@H]3CCCO[C@@H]3[C@H](N(C)Cc3ccco3)C2)s1,-11%
21,Cc1nc(CN2CCO[C@@H]3CN(Cc4ccccn4)CC[C@@H]3C2)cs1,-6.11%
22,O=C1CO[C@@H]2CN(Cc3ccncc3)C[C@H]2N1Cc1ccncc1,-7.94%
23,CN(Cc1ccncc1)C1COC2(CCN(Cc3ccccn3)CC2)C1 (stereo not given),-7%
